Experimental data published in ChEMBL document CHEMBL1201862, “PubChem BioAssay data set” (2004).
Active and inactive are the calls of the source.

Experiments:
[1] = target: T1, DNA repair protein RAD52 homolog (Homo sapiens, UniProt P43351); format: functional, biochemical
T1 sequence (P43351 whole entry): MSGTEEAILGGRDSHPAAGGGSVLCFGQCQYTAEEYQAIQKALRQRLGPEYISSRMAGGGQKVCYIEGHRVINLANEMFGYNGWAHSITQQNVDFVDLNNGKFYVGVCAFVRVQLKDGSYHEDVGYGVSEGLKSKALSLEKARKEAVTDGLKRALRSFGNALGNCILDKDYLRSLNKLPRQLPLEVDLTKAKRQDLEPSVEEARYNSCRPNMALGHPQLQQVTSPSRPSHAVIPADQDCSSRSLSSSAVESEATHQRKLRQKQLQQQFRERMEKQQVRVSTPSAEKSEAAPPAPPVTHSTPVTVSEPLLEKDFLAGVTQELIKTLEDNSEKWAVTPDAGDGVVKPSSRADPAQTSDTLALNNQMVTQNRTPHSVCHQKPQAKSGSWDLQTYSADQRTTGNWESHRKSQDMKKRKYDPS

[2] = viability loss in HepG2 liver cells – cell-based, ATP luminescence, cherry-pick, set 6, cytotoxicity control, dose response (AID 1053125); format: functional
Caspase-3 [3] = target: T2, Caspase-3 (Homo sapiens, UniProt P42574); format: functional;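 also: Dose-response selectivity test against caspase-3 for candidate inhibitors of sentrin-specific proteases (SENPs)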
T2 sequence (P42574 whole entry): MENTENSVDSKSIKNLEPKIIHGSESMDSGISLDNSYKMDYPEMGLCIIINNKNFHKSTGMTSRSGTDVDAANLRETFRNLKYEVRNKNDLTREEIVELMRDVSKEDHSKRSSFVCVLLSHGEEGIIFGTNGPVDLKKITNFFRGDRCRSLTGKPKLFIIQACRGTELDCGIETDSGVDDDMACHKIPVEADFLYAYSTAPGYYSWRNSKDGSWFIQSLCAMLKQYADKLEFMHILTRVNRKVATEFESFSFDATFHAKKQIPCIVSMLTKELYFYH

[4] = target: T3, Sentrin-specific protease 7 (Homo sapiens, UniProt Q9BQF6); format: functional;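 also: Luminescence-based dose-response confirmation of ultra-high-throughput screening hits, measuring inhibition of SENP7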
T3 sequence (Q9BQF6 whole entry): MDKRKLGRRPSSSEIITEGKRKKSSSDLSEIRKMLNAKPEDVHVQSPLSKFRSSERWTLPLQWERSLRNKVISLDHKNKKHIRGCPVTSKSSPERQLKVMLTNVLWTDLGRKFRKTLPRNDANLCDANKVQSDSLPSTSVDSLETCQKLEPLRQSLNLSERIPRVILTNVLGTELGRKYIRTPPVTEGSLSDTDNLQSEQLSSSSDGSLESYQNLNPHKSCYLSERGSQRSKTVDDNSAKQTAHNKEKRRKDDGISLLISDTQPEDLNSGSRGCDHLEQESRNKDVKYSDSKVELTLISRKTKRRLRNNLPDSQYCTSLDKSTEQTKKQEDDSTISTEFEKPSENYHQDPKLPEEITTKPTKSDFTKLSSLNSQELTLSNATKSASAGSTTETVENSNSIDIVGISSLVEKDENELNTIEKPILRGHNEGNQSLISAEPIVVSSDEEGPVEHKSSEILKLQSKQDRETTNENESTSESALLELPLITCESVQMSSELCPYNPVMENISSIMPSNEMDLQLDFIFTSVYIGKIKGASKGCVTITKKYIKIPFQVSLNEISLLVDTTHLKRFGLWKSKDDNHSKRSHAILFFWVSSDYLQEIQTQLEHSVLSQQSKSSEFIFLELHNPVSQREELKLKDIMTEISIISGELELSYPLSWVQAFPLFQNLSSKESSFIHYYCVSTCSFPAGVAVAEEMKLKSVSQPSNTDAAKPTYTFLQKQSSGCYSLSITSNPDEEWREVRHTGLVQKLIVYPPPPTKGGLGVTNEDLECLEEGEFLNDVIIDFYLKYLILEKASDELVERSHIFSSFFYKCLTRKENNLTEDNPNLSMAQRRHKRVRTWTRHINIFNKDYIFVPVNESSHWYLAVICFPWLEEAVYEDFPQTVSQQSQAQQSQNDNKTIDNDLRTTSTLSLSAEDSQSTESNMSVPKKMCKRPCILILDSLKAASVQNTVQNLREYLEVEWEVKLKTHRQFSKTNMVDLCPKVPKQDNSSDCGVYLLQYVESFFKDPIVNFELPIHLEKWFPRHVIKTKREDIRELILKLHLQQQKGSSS

[5] = target: T4, Sentrin-specific protease 6 (Homo sapiens, UniProt Q9GZR1); format: functional;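 also: Luminescence-based dose-response confirmatory assay of SENP6 inhibition, following up an ultra-high-throughput screen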
T4 sequence (Q9GZR1 whole entry): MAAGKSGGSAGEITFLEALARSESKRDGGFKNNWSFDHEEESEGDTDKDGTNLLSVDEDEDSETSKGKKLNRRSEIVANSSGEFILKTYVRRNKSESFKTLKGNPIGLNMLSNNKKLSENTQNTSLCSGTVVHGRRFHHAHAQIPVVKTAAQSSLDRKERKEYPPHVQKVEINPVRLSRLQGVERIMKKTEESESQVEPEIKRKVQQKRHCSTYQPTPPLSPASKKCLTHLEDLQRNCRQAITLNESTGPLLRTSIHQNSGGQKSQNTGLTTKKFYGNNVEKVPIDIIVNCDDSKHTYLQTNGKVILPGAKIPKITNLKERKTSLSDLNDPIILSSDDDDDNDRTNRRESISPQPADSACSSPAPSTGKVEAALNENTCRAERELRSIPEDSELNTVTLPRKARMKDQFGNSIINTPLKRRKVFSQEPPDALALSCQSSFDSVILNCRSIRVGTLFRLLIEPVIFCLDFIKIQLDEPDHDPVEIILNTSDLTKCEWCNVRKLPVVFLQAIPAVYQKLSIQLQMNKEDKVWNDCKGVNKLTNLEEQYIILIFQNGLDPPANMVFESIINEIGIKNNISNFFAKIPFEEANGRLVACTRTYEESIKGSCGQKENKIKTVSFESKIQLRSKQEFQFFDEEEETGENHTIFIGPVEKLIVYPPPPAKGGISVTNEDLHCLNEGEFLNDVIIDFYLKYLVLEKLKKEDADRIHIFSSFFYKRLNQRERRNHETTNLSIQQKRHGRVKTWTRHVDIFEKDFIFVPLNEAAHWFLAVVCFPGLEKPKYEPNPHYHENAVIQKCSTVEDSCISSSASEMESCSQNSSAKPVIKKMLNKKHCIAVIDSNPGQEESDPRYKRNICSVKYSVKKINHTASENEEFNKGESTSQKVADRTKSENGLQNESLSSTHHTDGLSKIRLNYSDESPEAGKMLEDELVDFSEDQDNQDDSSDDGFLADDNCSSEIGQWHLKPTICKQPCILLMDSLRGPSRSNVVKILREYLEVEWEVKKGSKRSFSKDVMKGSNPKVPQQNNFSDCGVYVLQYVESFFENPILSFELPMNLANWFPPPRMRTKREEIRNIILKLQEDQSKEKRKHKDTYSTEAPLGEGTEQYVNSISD

[6] = target: T5, Sentrin-specific protease 8 (Homo sapiens, UniProt Q96LD8); format: functional;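 also: luminescence read-out of SENP8 inhibition, dose-response confirmation following an ultra-high-throughput screen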
T5 sequence (Q96LD8 whole entry): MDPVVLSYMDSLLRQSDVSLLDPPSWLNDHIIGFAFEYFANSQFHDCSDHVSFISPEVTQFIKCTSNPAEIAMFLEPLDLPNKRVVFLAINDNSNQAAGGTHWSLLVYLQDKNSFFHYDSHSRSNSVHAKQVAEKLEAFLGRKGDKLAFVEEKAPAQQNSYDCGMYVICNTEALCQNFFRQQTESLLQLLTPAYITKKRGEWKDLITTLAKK

H9c2 = assay: cells; format: functional, cell-based; conditions: Rattus norvegicus, H9c2, Myocardium;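 also: confirmatory concentration-response retest of ultra-high-throughput screening hits for modulation of myocardial damage; cell death induced by hydrogen peroxide oxidative stress; compound pretreatment for 60 min then peroxide exposure for 2 h; potency is for protecting the cells against peroxide damage rather than for killing them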
[7] = target: Mitochondrial peptide methionine sulfoxide reductase (Bos taurus, UniProt P54149); assay: Absorbance-based biochemical high throughput dose response assay for activators of Methionine sulfoxide reductase A (MsrA).; format: functional
Chain of Mitochondrial peptide methionine sulfoxide reductase (P54149 whole entry): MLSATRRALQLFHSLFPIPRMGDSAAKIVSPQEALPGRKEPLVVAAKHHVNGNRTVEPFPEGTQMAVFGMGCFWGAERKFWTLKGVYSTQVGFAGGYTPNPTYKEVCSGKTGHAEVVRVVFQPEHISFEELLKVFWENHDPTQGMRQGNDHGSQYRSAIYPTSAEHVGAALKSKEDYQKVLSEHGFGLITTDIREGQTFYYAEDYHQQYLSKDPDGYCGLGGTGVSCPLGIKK

Caspase-6 = target: T6, Caspase-6 (Homo sapiens, UniProt P55212); assay: inhibition of CASP6 peptide cleavage – biochemical, VEID-R110 fluorescence, cherry-pick, dose response (AID 720632)
T6 sequence (P55212 whole entry): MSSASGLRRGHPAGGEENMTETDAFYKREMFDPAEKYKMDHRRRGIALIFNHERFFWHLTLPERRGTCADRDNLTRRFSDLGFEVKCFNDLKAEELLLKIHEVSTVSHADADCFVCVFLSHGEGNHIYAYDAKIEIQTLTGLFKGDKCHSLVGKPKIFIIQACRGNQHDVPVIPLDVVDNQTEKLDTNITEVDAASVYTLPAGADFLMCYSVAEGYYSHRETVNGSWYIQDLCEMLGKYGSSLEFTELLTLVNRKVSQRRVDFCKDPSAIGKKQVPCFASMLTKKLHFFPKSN

Caspase-9 = Caspase-9 (Homo sapiens, UniProt P55211); assay: inhibitors of purified CASP9 protease – biochemical, fluorescence, plate reader, cherry-picked samples, selectivity assay for caspase-6 inhibitor project, dose response (AID 743293)
Chain of Caspase-9 (P55211 1-315 limits assumed): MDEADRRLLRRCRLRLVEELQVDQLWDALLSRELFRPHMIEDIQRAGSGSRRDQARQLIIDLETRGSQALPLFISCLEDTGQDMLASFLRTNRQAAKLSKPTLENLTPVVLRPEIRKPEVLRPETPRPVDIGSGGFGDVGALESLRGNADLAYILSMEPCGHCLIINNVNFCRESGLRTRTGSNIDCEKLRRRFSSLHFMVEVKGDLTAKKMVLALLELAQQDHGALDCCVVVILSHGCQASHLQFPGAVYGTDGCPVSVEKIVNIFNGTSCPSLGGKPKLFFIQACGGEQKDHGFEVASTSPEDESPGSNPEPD
Chain of Caspase-9 (P55211 331-416 limits assumed): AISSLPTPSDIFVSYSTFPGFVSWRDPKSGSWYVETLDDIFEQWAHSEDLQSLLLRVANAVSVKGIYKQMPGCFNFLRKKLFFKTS

[8] = target: Tyrosyl-DNA phosphodiesterase 2 (Homo sapiens, UniProt O95551); assay: potency against TDP2 phosphodiesterase activity – biochemical, epi absorbance, IC50, dose response (AID 743297)
Chain of Tyrosyl-DNA phosphodiesterase 2 (O95551 whole entry): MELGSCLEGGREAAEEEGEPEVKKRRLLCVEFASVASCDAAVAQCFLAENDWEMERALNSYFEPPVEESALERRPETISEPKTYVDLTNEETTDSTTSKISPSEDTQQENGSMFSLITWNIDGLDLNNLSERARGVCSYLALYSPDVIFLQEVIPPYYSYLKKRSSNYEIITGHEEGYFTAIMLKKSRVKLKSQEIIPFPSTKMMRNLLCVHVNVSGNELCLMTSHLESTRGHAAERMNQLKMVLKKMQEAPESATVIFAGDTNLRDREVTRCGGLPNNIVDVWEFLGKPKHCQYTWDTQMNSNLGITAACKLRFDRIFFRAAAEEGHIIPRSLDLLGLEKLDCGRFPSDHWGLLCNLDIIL

Caspase-7 = Caspase-7 (Homo sapiens, UniProt P55210); assay: caspase-7 enzyme inhibition, selectivity check – biochemical, DEVD-R110 fluorescence, cherry-pick, selectivity assay for caspase-6 inhibitor project, dose response (AID 743295); format: functional
Chain of Caspase-7 (P55210 24-198 limits assumed): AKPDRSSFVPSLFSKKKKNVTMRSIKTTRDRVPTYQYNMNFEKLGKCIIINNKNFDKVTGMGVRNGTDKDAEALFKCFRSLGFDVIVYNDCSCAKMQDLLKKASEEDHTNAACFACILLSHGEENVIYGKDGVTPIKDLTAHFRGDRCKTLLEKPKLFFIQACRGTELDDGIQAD
Chain of Caspase-7 (P55210 207-303 limits assumed): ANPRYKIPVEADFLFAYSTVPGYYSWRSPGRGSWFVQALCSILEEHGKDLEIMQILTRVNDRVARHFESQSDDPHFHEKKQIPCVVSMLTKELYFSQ

Caspase-8 = Caspase-8 (Homo sapiens, UniProt Q14790); assay: inhibitors of purified CASP8 protease – biochemical, Z-IETD-R110 fluorescence, cherry-picked samples, selectivity assay for caspase-6 inhibitor project, dose response (AID 743294)
Chain of Caspase-8 (Q14790 217-374 limits assumed): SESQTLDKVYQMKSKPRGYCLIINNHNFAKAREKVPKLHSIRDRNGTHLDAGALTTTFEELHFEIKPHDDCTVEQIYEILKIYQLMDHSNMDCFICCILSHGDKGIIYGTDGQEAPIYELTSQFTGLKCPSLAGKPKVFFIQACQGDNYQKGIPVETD
Chain of Caspase-8 (Q14790 385-479 limits assumed): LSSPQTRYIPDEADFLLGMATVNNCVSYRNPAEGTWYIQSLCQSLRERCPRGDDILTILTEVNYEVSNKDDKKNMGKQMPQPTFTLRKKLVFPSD

Caspase-3 [9] = target: T2, Caspase-3; assay: human caspase-3 protease activity blockade – biochemical, fluorescence, cherry-picked samples, selectivity assay for caspase-6 allosteric inhibitor project, dose response (AID 743291)
[10] = cytotoxicity in MITF-independent A375 cells – cell-based, CellTiter-Glo luminescence, dry powder, set 4, counter-screen for MITF inhibitor project, dose response (AID 624364); format: functional; conditions: A-375;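 also: A375 melanoma cells are MITF independent so this is a counter screen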
[11] = viability loss in MITF-independent A375 cells – cell-based, CellTiter-Glo luminescence, dry powder, set 2, counter-screen for MITF inhibitor project, dose response (AID 624489); format: functional; conditions: A-375;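 also: actives are compounds lowering A375 viability meaning general cytotoxicity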
[12] = target: T7, Methionyl-tRNA synthetase, putative (Trypanosoma brucei brucei, UniProt Q38C91); format: functional, Trypanosoma brucei brucei strain 927/4 GUTat10.1
T7 sequence (Q38C91 whole entry): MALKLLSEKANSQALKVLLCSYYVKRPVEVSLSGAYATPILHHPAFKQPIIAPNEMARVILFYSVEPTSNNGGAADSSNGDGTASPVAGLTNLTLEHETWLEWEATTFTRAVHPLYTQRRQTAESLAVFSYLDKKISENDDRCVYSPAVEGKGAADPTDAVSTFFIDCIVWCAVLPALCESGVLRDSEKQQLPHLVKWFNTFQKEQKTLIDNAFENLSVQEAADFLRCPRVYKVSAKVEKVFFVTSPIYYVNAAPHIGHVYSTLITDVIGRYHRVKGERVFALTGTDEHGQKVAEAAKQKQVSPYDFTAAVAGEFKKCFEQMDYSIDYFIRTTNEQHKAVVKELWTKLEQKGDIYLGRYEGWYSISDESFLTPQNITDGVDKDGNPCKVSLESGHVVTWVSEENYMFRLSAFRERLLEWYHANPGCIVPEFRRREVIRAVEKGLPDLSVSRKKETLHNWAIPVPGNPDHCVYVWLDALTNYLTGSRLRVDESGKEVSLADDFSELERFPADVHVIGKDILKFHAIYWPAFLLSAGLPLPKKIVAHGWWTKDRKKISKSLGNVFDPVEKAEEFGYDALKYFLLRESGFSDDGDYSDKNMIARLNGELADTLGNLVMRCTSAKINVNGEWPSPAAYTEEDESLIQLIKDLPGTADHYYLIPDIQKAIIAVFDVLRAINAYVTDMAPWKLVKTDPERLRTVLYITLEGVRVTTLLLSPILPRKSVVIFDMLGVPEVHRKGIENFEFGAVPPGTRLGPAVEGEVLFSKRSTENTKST

[13] = Counterscreen for inhibitors of Trypanosoma brucei methionyl tRNA synthetase (MetRS): Luminescence-based cell-based high throughput dose response assay to identify compounds that are cytotoxic to Jurkat human T lymphocyte cells.; format: functional
[14] = target: T7, Methionyl-tRNA synthetase, putative; format: functional, Trypanosoma brucei brucei strain 927/4 GUTat10.1; remark: listed apart in the source
[15] = Late stage counterscreen for inhibitors of Trypanosoma brucei methionyl tRNA synthetase (MetRS): Luminescence-based cell-based high throughput dose response assay to identify compounds that are cytotoxic to Jurkat human T lymphocyte cells.; format: functional

With `Cc1cccn2c(=O)c3cc(C(N)=S)c(=N)n(CCCN4CCOCC4)c3nc12` the AC50 [1] was 3.43 µM (active), the AC50 [2] was > 52 µM (inactive) and the AC50 (cells) was 5.15 µM (active).

For `O=C(OCc1nnc(-c2ccccc2)o1)c1ccc([N+](=O)[O-])s1`, the IC50 (Caspase-3 [3]) was 14.3 µM (active), the IC50 [4] was 10.1 µM (active) and the IC50 [5] was 6.79 µM (active). For the same compound, the IC50 [6] was 5.56 µM (active), the IC50 (H9c2) was > 79 µM (inactive) and the EC50 [7] was 33.1 µM (inactive). The AC50 (Caspase-6) was 3.66 µM (active), the AC50 (Caspase-9) was 18.4 µM (active) and the IC50 [8] was 24.2 µM (inactive). The AC50 (Caspase-7) was 14.6 µM (active), the AC50 (Caspase-8) was 23.3 µM (active) and the AC50 (Caspase-3 [9]) was 6.9 µM (active).

In the case of `O=C1C(NS(=O)(=O)c2cccs2)=C(N2CCOCC2)C(=O)c2ccccc21`, the AC50 [10] is reported as > 70 µM (inactive) and the AC50 [11] is reported as > 70 µM (inactive).

In the case of `CN1CC(=O)N2C(c3cccc([N+](=O)[O-])c3)c3[nH]c4ccccc4c3C[C@H]2C1=O` (stereo partly specified), the IC50 [12] is reported as 0.798 µM (active), the IC50 [13] is reported as 83.3 µM (inactive) and the IC50 [14] is reported as 0.393 µM (active). For the same compound, the IC50 [15] was > 83.3 µM (inactive).
